Where a chain is given by its changes, count along the chain named. Names may count otherwise.
B1: GPIHBP1-G175R: GPIHBP1 with G175R missense substitution in the carboxyl-terminal hydrophobic domain (protein)
chain: QTQQEEEEEDEDHGPDDYDEEDEDEVEEEETNRLPGGRSRVLLRCYTCKSLPRDERCNLTQNCSHGQTCTTLIAHGNTESGLLTTHSTWCTDSCQPITKTVEGTQVTMTCCQSSLCNVPPWQSSRVQDPTG
modifications: left off: small tags and cut ends
notes: GPIHBP1 with G175R missense substitution in the carboxyl-terminal hydrophobic domain
B2: GPIHBP1-W109S: mutant GPIHBP1 which lacks the ability to bind LPL, used as control (protein)
chain: B1 chain with W89S
modifications: left off: small tags and cut ends

How the values were obtained:
[1] = Plasma triglyceride levels of patients with GPIHBP1 autoantibodies under drug treatment (case follow-up); type: in vivo, human; details: for effect of treatment on plasma triglycerides / hypertriglyceridemia (in words): case reports of single patients (111, 157, 164)
[2] = system: autoantibodies; details: in patients, literature reports; cited from earlier work
[3] = target: T1, V5-tagged human LPL (Homo sapiens, UniProt P06858); experiment: Cell-based LPL-GPIHBP1 binding assay of GPIHBP1 variants; details: transfected CHO pgsA-745 cells or HUVEC
T1 construct: made in house
T1 sequence (P06858 28-475): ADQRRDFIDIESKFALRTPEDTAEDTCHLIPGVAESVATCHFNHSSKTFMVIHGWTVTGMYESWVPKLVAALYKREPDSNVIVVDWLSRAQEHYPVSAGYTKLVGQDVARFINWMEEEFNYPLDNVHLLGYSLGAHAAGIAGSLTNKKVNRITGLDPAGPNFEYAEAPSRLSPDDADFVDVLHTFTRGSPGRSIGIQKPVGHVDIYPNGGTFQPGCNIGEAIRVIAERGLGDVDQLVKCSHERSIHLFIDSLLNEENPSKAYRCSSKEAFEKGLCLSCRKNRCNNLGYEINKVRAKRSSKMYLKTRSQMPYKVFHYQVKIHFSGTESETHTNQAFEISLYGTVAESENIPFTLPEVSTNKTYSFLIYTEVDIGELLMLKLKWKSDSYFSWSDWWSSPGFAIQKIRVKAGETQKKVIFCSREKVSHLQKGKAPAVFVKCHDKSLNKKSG
Procedure: Expression vectors for S-protein-tagged wild-type (wt) GPIHBP1, GPIHBP1-G175R, and GPIHBP1-W109S (or the empty vector) were transfected into CHO pgsA-745 cells or human umbilical vein endothelial cells (HUVEC). After 1 day, the cells were washed three times in PBS and incubated for 1 h at 4° C. with V5-tagged human LPL (900 ng/well). Then the cells were washed six times in PBS, and cell lysates were collected in RIPA buffer (Sigma) containing a protease inhibitor cocktail (Roche). Proteins were separated by SDS-PAGE, and western blots were performed under reducing conditions with a goat antibody against the S-protein tag (Abcam, 5 μg/ml), followed by an IRdye680-donkey anti-goat IgG (LI-COR, 1:2000) and an IRdye800-V5 antibody (1:500).

Molecule	effect of treatment on plasma triglycerides / hypertriglyceridemia (in words) [1]	reduction of autoantibodies [2]	LPL binding by GPIHBP1 variant expressed on cells [3]	also measured
COc1c(C)c2c(c(O)c1C/C=C(\C)CCC(=O)OCCN1CCOCC1)C(=O)OC2 [Mycophenolate mofetil]	failed to lower the plasma triglyceride levels			Follow-up (mg/dl): follow-up plasma triglyceride levels after treatment ([1]; single patients: 101 (prednisolone 10 mg/day, salazosulfapyridine 1000 mg/day), 111, 164 (mycophenolate mofetil 750 + 500 mg/day, hydroxychloroquine 100 mg/day)): 2,573-4,085 mg/dl
Belimumab		reduce autoantibodies		
Rituximab		reducing the production of autoantibodies in patients		
n−3 fatty acids	resistant			
B1			binds LPL avidly	
B2			lacks the ability to bind LPL	

Source: patent publication US11090310B2, “Methods and compositions for treating hypertriglyceridemia” (THE REGENTS OF THE UNIVERSITY OF CALIFORNIA, priority 2016, dated 2021)
